This experiment has as its system psoriatic lesion on the leg. The experiment can be described thus: Treatment of a psoriatic lesion with topical ointment and UVB irradiation (single patient). It counts as in vivo. To be noted: VES 20 mg/gram ointment applied 1 day after provitamin D + UVB (3 MED); within 12 hours. As to the method:
Treatment of psoriasis with UVB irradiation. A patient with a ½ inch round psoriatic lesion on the leg was treated with provitamin D (35 mg/gram ointment) and irradiated with UVB (3 MED). […] The formally lesional tissue looked like normal healthy tissue.

Take `Cc1c(C)c2c(c(C)c1OC(=O)CCC(=O)O)CC[C@@](C)(CCC[C@H](C)CCC[C@H](C)CCCC(C)C)O2` [Vitamin E succinate]: the “appearance of the treated tissue (induration, redness)” value was “the tissue was not indurated and the redness disappeared”.
